# Assay results from patent publication EP2135864A1, “5-(4-methanesulfonyl-phenyl)-thiazole derivatives for the treatment of acute and chronic inflammatory diseases” (FAES FARMA, S.A., priority 2008, dated 2009).
# Columns and labels:
# Type in all cases: cell-based, human
# TNF-alpha = TNF-alpha production by PBMC from patients with rheumatoid arthritis, CBA; details: 24 hours, mean ± standard error, n=7
# Method: (§1) CBA protocol was followed according to the manufacturer's instructions. The election of microparticles was performed following the summary of Figure 1.
# (§2) The acquisition on samples was performed with the BD FACS Array Bioanalyser System (FACSArray, Becton Dickinson, San José, CA, USA) and the analysis of the results was completed with the software FCAP Array (Becton Dickinson) in a PC computer.
# (§3) Briefly, the experimental protocol consisted of a plate pre-washing out with Wash Buffer. After decantation, the mixture of capture microparticles was re-suspended in the vortex. Standards and samples were added in the adequate dilution. After permanent stirring incubation during 1 h, the PE detection reagent was added and incubated again during 2h at room temperature. After a washing-out, the acquisition was performed in the flow cytometer. Table 3. -Kit CBA Human Soluble Protein Multiplex Flex Set System.
# In another experiment, PBMC (5 x 10^4 cells per well) from 7 patients with rheumatoid arthritis were cultured in duplicate in 200 µl of complete medium supplemented with the highest solvent (10^-6 M), and 10^-6 M, 10^-7 M and 10^-8 M compound 12 and in the presence and absence of either LPS (10 µg/ml), or anti-CD3 (12.5ng/ml) (Orthoclone OKT3, Ortho Pharmaceutical Corporation, Raritan NJ, USA) + anti-CD28 (1/3x10^5) (Clon 15E8, Menarini, Madrid, Spain), during 24 hours. Culture supernatants were frozen at -20°C and the concentration of TNF-alpha quantified by BD FACS Array Bioanalyser by using CBA Flex Set (Becton Dickinson), specific for determining the concentration of that cytokine, following the manufacturer instructions.
# IL-10 = IL-10 production by PBMC from healthy volunteers, CBA; details: 24 hours, mean ± standard error, n=13
# Method: as §1, §2, §3
# The effects of compound 12 on IL-10 production by the PBMC from healthy volunteers and patients with rheumatoid arthritis were investigated in the presence and absence of LPS stimulation and with the combination of monoclonal antibodies anti-CD3 and anti-CD28. PBMC (5 x 10^4 cells per well) from 13 healthy volunteers were cultured in duplicate 200 µl of complete medium supplemented with the highest solvent concentration (10^-6 M), and 10^-6 M, 10^-7 M and 10^-8 M of compound 12, in the presence and absence of either LPS (10 µg/ml) or anti-CD3 (12.5 ng/ml), + anti-CD28 (1/3x10^5), during 24 hours.
# On the other hand, PBMC (5 x 10^4 cells per well) from 8 patients with rheumatoid arthritis were cultured in duplicate in 200 µl of complete medium supplemented with the highest solvent concentration (10^-6 M), and 10^-6 M, 10^-7 M and 10^-8 M of compound 12 in the presence and absence of either LPS (10 µg/ml) or anti-CD3 (12.5 ng/ml), + anti-CD28 (1/3x10^5), during 24 hours. Culture supernatants were frozen at -20°C and IL-10 concentration was assayed by BD FACS Array Bioanalyser by using CBA Flex Set, specific to determine IL-10 concentration, following the manufacturer instructions.
# [1] = system: PBMC from healthy volunteers; experiment: Proliferative response of PBMC, 3[H]-Thymidine incorporation; details: n=8; 4 days culture; absence or presence of PHA 10 µg/ml, PHA 2 µg/ml plus IL-2 (25 IU/ml), or anti-CD3 (12.5 ng/ml) + anti-CD28 (1:320.000)
# Method: Faced against a mitogen stimulation, lymphocytes suffer a blastogenesis and cellular differentiation process. The method used to quantify the cellular proliferation was the assay of the incorporation of ^3[H]-Thymidine to the DNA de novo synthesized, and the emission of betha-radiation from the cellular cultures dried extracts (to which the tritiated base was added) was detected before its ending and harvesting. In the different experiments performed to study the proliferation, the purified cellular preparations were incubated in 96 microwells plain bottom plates at concentrations of 5 x 10^4 cells/well (200 µl final volume), in the presence of different concentrations of various mitogens with triplicate repetitions and along 4 days of culture.
# The response to a specific stimuli depended on the density and cell type studied, as well as of the culture time and of the mitogenic agent concentration. […]
# PBMC was cultured during 4 days (50.000 cells per well) at 37°C and 5 % CO2 atmosphere (Cell incubator HERA Cell 150, Thermoscientific, Thermoelectron, 63505 Lagenselbold, GE) in complete culture medium. […] The DNA-incorporated radioactive was quantified by using a betha particles counter Wallac Oy.
compound,measurement,setting,value
"Cc1nc(OC2CCCC2)c(-c2ccc(S(C)(=O)=O)cc2)s1 [compound 12, 4-cyclopentyloxy-5-(4-methylsulfonyl-phenyl)-2-methylthiazole]",TNF-alpha production in PMBC from patients with rheumatoid arthritis,"TNF-alpha; LPS (10µg/ml), 10^-6 M, vehicle 700.39±180.00, p 0.05",383.75±75.00 (0.05) pg/ml
same,TNF-alpha production in PMBC from patients with rheumatoid arthritis,"TNF-alpha; LPS (10µg/ml), 10^-7 M, vehicle 700.39±180.00, p 0.237",626.57±150.00 (0.237) pg/ml
same,TNF-alpha production in PMBC from patients with rheumatoid arthritis,"TNF-alpha; LPS (10µg/ml), 10^-8 M, vehicle 700.39±180.00, p 0.499",683.40±120.00 (0.499) pg/ml
same,TNF-alpha production in PMBC from patients with rheumatoid arthritis,"TNF-alpha; anti-CD3 (12.5 ng/ml) + anti-CD28 (1/3x10^5), 10^-6 M, vehicle 648.72±90.00, p 0.31",532.07±80.00 (0.31) pg/ml
same,TNF-alpha production in PMBC from patients with rheumatoid arthritis,"TNF-alpha; anti-CD3 (12.5 ng/ml) + anti-CD28 (1/3x10^5), 10^-7 M, vehicle 648.72±90.00, p 0.612",568.47±97.00 (0.612) pg/ml
same,TNF-alpha production in PMBC from patients with rheumatoid arthritis,"TNF-alpha; anti-CD3 (12.5 ng/ml) + anti-CD28 (1/3x10^5), 10^-8 M, vehicle 648.72±90.00, p 0.398",695.81±79.00 (0.398) pg/ml
same,TNF-alpha production in PMBC from patients with rheumatoid arthritis,"TNF-alpha; medium, 10^-6 M, vehicle 100.64±40.00, p 0.735",177.32±95.00 (0.735) pg/ml
same,TNF-alpha production in PMBC from patients with rheumatoid arthritis,"TNF-alpha; medium, 10^-7 M, vehicle 100.64±40.00, p 0.735",191.33±80.00 (0.735) pg/ml
same,TNF-alpha production in PMBC from patients with rheumatoid arthritis,"TNF-alpha; medium, 10^-8 M, vehicle 100.64±40.00, p 0.735",131.95±85.00 (0.735) pg/ml
same,IL-10 production by PMBC from healthy volunteers,"IL-10; LPS (10µg/ml), 10^-6 M, vehicle 2342.20±384.02, p 0.507",2420.68±455.50 (0.507) pg/mL
same,IL-10 production by PMBC from healthy volunteers,"IL-10; LPS (10µg/ml), 10^-7 M, vehicle 2342.20±384.02, p 0.507",2392.99±427.86 (0.507) pg/mL
same,IL-10 production by PMBC from healthy volunteers,"IL-10; LPS (10µg/ml), 10^-8 M, vehicle 2342.20±384.02, p 0.701",2389.63±366.01 (0.701) pg/mL
same,IL-10 production by PMBC from healthy volunteers,"IL-10; anti-CD3 (12.5 ng/ml) + anti-CD28 (1/3x10^5), 10^-6 M, vehicle 1042.64±162.36, p 0.507",1239.47±251.24 (0.507) pg/mL
same,IL-10 production by PMBC from healthy volunteers,"IL-10; anti-CD3 (12.5 ng/ml) + anti-CD28 (1/3x10^5), 10^-7 M, vehicle 1042.64±162.36, p 0.382",1132.69±213.32 (0.382) pg/mL
same,IL-10 production by PMBC from healthy volunteers,"IL-10; anti-CD3 (12.5 ng/ml) + anti-CD28 (1/3x10^5), 10^-8 M, vehicle 1042.64±162.36, p 0.507",1122.51±211.03 (0.507) pg/mL
same,IL-10 production by PMBC from healthy volunteers,"IL-10; medium, 10^-6 M, vehicle 490.46±87.16, p 0.753",559.06±112.20 (0.753) pg/mL
same,IL-10 production by PMBC from healthy volunteers,"IL-10; medium, 10^-7 M, vehicle 490.46±87.16, p 0.701",609.10±108.74 (0.701) pg/mL
same,IL-10 production by PMBC from healthy volunteers,"IL-10; medium, 10^-8 M, vehicle 490.46±87.16, p 0.861",578.66±106.20 (0.861) pg/mL
same,proliferative response of the PBMC from healthy volunteers,[1],did not significantly modify
